Reference: patent US9833497B2, “Human originated EGF domain proteins and use of the same” (CHENGDU SOURCEBIO LIMITED-LIABILITY COMPANY, priority 2013, dated 2017)

How the values were obtained:
Assay type in all cases: cell-based
E. coli DH5α = assay: Antibacterial activity: MIC and growth curve against E. coli DH5α in 96-well plate; settings: minimal inhibitory concentration against E. coli DH5α; 96-well plate, 5×10^5 CFU/mL, 37° C., judged after 8 h
Method in brief: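 Log-phase bacteria (OD600 ~0.5) resuspended in LB at 5×10^5 CFU/mL, exposed to recombinant protein at 50, 25, 12.5 μg/mL final in triplicate, 37 °C shaking at 175 rpm. OD600 read every 30 min; MIC is lowest concentration showing no growth.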

Pseudomonas aeruginosa = assay: MIC against Gram-negative bacteria: Pseudomonas aeruginosa; settings: 5×10^5 CFU/mL
Method in brief: (§1)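 Purified recombinant human EGF domain proteins are tested by broth dilution in LB against a 5×10^5 CFU/mL inoculum, with two-fold serial dilutions run in triplicate. Plates are incubated at 37° C with shaking, and the MIC is read as the lowest protein concentration without growth.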

Proteus mirabilis = assay: MIC against Gram-negative bacteria: Proteus mirabilis; settings: 5×10^5 CFU/mL
Method in brief: as §1

Aeromonas hydrophila = assay: MIC against Gram-negative bacteria: Aeromonas hydrophila; settings: 5×10^5 CFU/mL
Method in brief: as §1

Serratia marcescens = assay: MIC against Gram-negative bacteria: Serratia marcescens; settings: 5×10^5 CFU/mL
Method in brief: as §1

E. coli BL21 = assay: MIC against Gram-negative bacteria: E. coli BL21; settings: 5×10^5 CFU/mL
Method in brief: as §1

Enterobacter cloacae = assay: MIC against Gram-negative bacteria: Enterobacter cloacae; settings: 5×10^5 CFU/mL
Method in brief: as §1

Citrobacter diversus = assay: MIC against Gram-negative bacteria: Citrobacter diversus; settings: 5×10^5 CFU/mL
Method in brief: as §1

Proteus vulgaris = assay: MIC against Gram-negative bacteria: Proteus vulgaris; settings: 5×10^5 CFU/mL
Method in brief: as §1

Moraxella catarrhalis = assay: MIC against Gram-negative bacteria: Moraxella catarrhalis; settings: 5×10^5 CFU/mL
Method in brief: as §1

Klebsiella pneumonia = assay: MIC against Gram-negative bacteria: Klebsiella pneumonia; settings: 5×10^5 CFU/mL
Method in brief: as §1

[1] = 10 h cultivation at 37° C., two-fold serial dilution
[2] = Pseudomonas aeruginosa, 96-well plate, 37° C., 10 h
[3] = Proteus mirabilis, 96-well plate, 37° C., 10 h
[4] = Aeromonas hydrophila, 96-well plate, 37° C., 10 h
[5] = Serratia marcescens, 96-well plate, 37° C., 10 h
[6] = E. coli BL21, 96-well plate, 37° C., 10 h
[7] = Enterobacter cloacae, 96-well plate, 37° C., 10 h
[8] = Citrobacter diversus, 96-well plate, 37° C., 10 h
[9] = Proteus vulgaris, 96-well plate, 37° C., 10 h
[10] = Moraxella catarrhalis, 96-well plate, 37° C., 10 h
[11] = Klebsiella pneumonia, 96-well plate, 37° C., 10 h

PRT1076 (SCLTCVGHCSNGGSCTMNSKMMPECQCPPHMTGPRCE; listed as Homo sapiens)
25 mg/L: MIC P. mirabilis (Proteus mirabilis; [1]) | MIC S. marcescens (Serratia marcescens; [1]) | MIC E. coli BL21 (E. coli BL21; [1]) | MIC K. pneumonia (Klebsiella pneumonia; [1])
12.5 mg/L: MIC (E. coli DH5α) | MIC P. aeruginosa (Pseudomonas aeruginosa; [1]) | MIC A. hydrophila (Aeromonas hydrophila; [1]) | MIC E. cloacae (Enterobacter cloacae; [1]) | MIC C. diversus (Citrobacter diversus; [1]) | MIC P. vulgaris (Proteus vulgaris; [1]) | MIC M. catarrhalis (Moraxella catarrhalis; [1])

PRT132 (ISDRCLPNYCEHGGECSQSWSTFHCNCTNTGYRGATCH; listed as Homo sapiens)
25 µg/mL: MIC (μg/mL) P. mirabilis (Proteus mirabilis; [3]) | MIC (μg/mL) E. cloacae (Enterobacter cloacae; [7]) | MIC (μg/mL) C. diversus (Citrobacter diversus; [8])
12.5 µg/mL: MIC (μg/mL) P. aeruginosa (Pseudomonas aeruginosa; [2]) | MIC (μg/mL) S. marcescens (Serratia marcescens; [5]) | MIC (μg/mL) E. coli BL21 (E. coli BL21; [6]) | MIC (μg/mL) M. catarrhalis (Moraxella catarrhalis; [10]) | MIC (μg/mL) K. pneumonia (Klebsiella pneumonia; [11])
50 µg/mL: MIC (μg/mL) A. hydrophila (Aeromonas hydrophila; [4]) | MIC (μg/mL) P. vulgaris (Proteus vulgaris; [9])
25 mg/L: MIC (E. coli DH5α)

PRT1256 (DVDECQDNNGGCQQICVNAMGSYECQCHSGFFLSDNQ; listed as Homo sapiens)
50 mg/L: MIC against A. hydrophila (Aeromonas hydrophila; [4]) | MIC against P. vulgaris (Proteus vulgaris; [9]) | MIC against M. catarrhalis (Moraxella catarrhalis; [10])
12.5 mg/L: MIC against P. mirabilis (Proteus mirabilis; [3]) | MIC against E. coli BL21 (E. coli BL21; [6]) | MIC against C. diversus (Citrobacter diversus; [8]) | MIC against K. pneumonia (Klebsiella pneumonia; [11])
25 mg/L: MIC (E. coli DH5α) | MIC against P. aeruginosa (Pseudomonas aeruginosa; [2]) | MIC against S. marcescens (Serratia marcescens; [5]) | MIC against E. cloacae (Enterobacter cloacae; [7])

PRT884 (HSDPCENNPCLHGGTCNANGTMYGCSCDQGFAGENCE; listed as Homo sapiens)
50 µg/mL: MIC (μg/mL) P. vulgaris (Proteus vulgaris; P. vulgaris, 10 h cultivation at 37° C.)
12.5 µg/mL: MIC (μg/mL) P. aeruginosa (Pseudomonas aeruginosa; P. aeruginosa, 10 h cultivation at 37° C.) | MIC (μg/mL) A. hydrophila (Aeromonas hydrophila; A. hydrophila, 10 h cultivation at 37° C.) | MIC (μg/mL) E. coli BL21 (E. coli BL21; E. coli BL21, 10 h cultivation at 37° C.) | MIC (μg/mL) E. cloacae (Enterobacter cloacae; E. cloacae, 10 h cultivation at 37° C.) | MIC (μg/mL) C. diversus (Citrobacter diversus; C. diversus, 10 h cultivation at 37° C.) | MIC (μg/mL) M. catarrhalis (Moraxella catarrhalis; M. catarrhalis, 10 h cultivation at 37° C.) | MIC (μg/mL) K. pneumonia (Klebsiella pneumonia; K. pneumonia, 10 h cultivation at 37° C.)
12.5 mg/L: MIC (E. coli DH5α)
25 µg/mL: MIC (μg/mL) P. mirabilis (Proteus mirabilis; P. mirabilis, 10 h cultivation at 37° C.) | MIC (μg/mL) S. marcescens (Serratia marcescens; S. marcescens, 10 h cultivation at 37° C.)

PRT94 (DVNECNAHPCFPRVRCINTSPGFRCEACPPGYSGPTHQGVGLAFAKANKQVCT; listed as Homo sapiens)
12.5 µg/mL: MIC (μg/mL) P. aeruginosa (Pseudomonas aeruginosa; [2]) | MIC (μg/mL) P. mirabilis (Proteus mirabilis; [3]) | MIC (μg/mL) A. hydrophila (Aeromonas hydrophila; [4]) | MIC (μg/mL) E. coli BL21 (E. coli BL21; [6]) | MIC (μg/mL) K. pneumonia (Klebsiella pneumonia; [11])
50 µg/mL: MIC (μg/mL) S. marcescens (Serratia marcescens; [5]) | MIC (μg/mL) E. cloacae (Enterobacter cloacae; [7]) | MIC (μg/mL) C. diversus (Citrobacter diversus; [8])
12.5 mg/L: MIC (E. coli DH5α)
25 µg/mL: MIC (μg/mL) P. vulgaris (Proteus vulgaris; [9]) | MIC (μg/mL) M. catarrhalis (Moraxella catarrhalis; [10])

PRT672 (DIDECMLFGSEICKEGKCVNTQPGYECYCKQGFYYDGNLLECV; listed as Homo sapiens)
12.5 mg/L: MIC (E. coli DH5α) | MIC P. aeruginosa (Pseudomonas aeruginosa; 96-well plate, 37° C., 10 h) | MIC A. hydrophila (Aeromonas hydrophila; 96-well plate, 37° C., 10 h) | MIC S. marcescens (Serratia marcescens; 96-well plate, 37° C., 10 h) | MIC E. cloacae (Enterobacter cloacae; 96-well plate, 37° C., 10 h) | MIC M. catarrhalis (Moraxella catarrhalis; 96-well plate, 37° C., 10 h)
25 mg/L: MIC P. mirabilis (Proteus mirabilis; 96-well plate, 37° C., 10 h) | MIC E. coli BL21 (E. coli BL21; 96-well plate, 37° C., 10 h) | MIC C. diversus (Citrobacter diversus; 96-well plate, 37° C., 10 h) | MIC K. pneumonia (Klebsiella pneumonia; 96-well plate, 37° C., 10 h)
50 mg/L: MIC P. vulgaris (Proteus vulgaris; 96-well plate, 37° C., 10 h)

PRT459 (RTAKCEPACRHGGVCVRPNKCLCKKGYLGPQCE; listed as Homo sapiens)
50 mg/L: MIC against M. catarrhalis (Moraxella catarrhalis; 96-well plate, 37° C., 10 h) | MIC against K. pneumonia (Klebsiella pneumonia; 96-well plate, 37° C., 10 h)
25 mg/L: MIC (E. coli DH5α) | MIC against P. aeruginosa (Pseudomonas aeruginosa; 96-well plate, 37° C., 10 h) | MIC against P. mirabilis (Proteus mirabilis; 96-well plate, 37° C., 10 h) | MIC against S. marcescens (Serratia marcescens; 96-well plate, 37° C., 10 h) | MIC against E. cloacae (Enterobacter cloacae; 96-well plate, 37° C., 10 h) | MIC against C. diversus (Citrobacter diversus; 96-well plate, 37° C., 10 h)
12.5 mg/L: MIC against A. hydrophila (Aeromonas hydrophila; 96-well plate, 37° C., 10 h) | MIC against E. coli BL21 (E. coli BL21; 96-well plate, 37° C., 10 h) | MIC against P. vulgaris (Proteus vulgaris; 96-well plate, 37° C., 10 h)
